For one experiment, the target named is T1, Kv1.3 potassium channel (Homo sapiens, UniProt P22001).
T1 construct: expressed in transfected cells
The experiment is described as follows: Kv1.3 potassium channel blocker activity, automated whole-cell patch clamp (Patchliner). The class given is cell-based. Conditions: CHO-K1 cells stably expressing Kv1.3; whole-cell current inhibition, Hill fit; read-out: Kv1.3 IC50. In general terms: The patch-clamp technique gives a direct electrical read-out from membranes.

In another experiment the target is hERG channel (Homo sapiens, UniProt Q12809). The experiment is described as follows: hERG electrophysiology, automated whole-cell patch clamp (Patchliner). Conditions: read-out: hERG IC50; CHO-K1 cells stably expressing hERG; whole-cell current inhibition, Hill fit. On the technique in general: hERG is a cardiac potassium channel; its block is linked to QT prolongation.
Chain of hERG channel (Q12809 whole entry): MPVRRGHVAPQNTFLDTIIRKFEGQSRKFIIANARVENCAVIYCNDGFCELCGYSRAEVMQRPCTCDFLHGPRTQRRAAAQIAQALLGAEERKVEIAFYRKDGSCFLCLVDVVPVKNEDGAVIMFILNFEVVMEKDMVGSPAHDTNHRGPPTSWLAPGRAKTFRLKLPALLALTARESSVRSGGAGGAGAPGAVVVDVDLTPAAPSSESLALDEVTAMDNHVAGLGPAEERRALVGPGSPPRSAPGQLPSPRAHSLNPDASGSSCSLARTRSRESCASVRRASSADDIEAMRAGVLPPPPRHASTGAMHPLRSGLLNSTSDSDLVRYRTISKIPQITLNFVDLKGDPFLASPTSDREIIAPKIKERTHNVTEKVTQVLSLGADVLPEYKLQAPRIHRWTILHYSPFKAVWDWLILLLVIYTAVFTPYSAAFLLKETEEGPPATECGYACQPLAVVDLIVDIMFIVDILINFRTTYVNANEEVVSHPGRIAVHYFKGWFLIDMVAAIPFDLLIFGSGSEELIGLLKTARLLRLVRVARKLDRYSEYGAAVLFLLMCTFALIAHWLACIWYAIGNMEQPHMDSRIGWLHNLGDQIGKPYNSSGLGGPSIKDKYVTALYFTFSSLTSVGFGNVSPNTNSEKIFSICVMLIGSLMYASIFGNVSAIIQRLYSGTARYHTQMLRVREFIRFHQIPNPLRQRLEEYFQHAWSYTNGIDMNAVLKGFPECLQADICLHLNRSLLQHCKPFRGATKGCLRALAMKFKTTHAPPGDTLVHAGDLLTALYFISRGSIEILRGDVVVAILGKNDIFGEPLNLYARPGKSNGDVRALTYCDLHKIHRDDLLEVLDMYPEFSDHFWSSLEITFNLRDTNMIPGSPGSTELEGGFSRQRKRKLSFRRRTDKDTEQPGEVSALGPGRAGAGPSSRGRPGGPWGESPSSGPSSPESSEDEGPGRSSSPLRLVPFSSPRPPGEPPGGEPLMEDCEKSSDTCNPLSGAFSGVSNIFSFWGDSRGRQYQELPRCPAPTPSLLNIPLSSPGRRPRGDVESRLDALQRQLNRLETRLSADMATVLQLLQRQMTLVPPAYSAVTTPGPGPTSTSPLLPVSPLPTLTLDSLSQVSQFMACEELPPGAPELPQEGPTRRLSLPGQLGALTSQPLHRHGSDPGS

T1 sequence (P22001 whole entry): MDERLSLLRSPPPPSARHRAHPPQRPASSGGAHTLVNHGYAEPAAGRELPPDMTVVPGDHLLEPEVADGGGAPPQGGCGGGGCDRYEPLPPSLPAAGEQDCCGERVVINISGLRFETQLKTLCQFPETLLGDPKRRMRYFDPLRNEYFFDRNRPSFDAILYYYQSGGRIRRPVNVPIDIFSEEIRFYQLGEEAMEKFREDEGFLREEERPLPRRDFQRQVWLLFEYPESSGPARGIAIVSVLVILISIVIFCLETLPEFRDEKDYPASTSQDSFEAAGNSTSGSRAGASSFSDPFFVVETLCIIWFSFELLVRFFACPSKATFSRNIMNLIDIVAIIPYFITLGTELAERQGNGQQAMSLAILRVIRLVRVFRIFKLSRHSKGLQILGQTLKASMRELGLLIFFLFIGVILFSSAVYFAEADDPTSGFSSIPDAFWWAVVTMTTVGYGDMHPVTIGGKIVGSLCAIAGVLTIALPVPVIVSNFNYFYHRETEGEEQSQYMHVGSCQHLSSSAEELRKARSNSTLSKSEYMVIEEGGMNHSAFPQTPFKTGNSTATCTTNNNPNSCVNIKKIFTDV

One may read the IC50 as the concentration that gives 50% inhibition. Turning to `C[C@@H]1[C@H](c2c(O)ccc(Cl)c2Cl)CC(=O)N1C1CNC1` [Compound 82, (4S,5R)-1-(azetidin-3-yl)-4-(2,3-dichloro-6-hydroxyphenyl)-5-methylpyrrolidin-2-one], the results for the IC50 at Kv1.3 potassium channel and at hERG channel were < 0.1 µM and > 30 µM, respectively.

For the origin of these results see US20230373952A1, “LACTAM COMPOUNDS AS Kv1.3 POTASSIUM SHAKER CHANNEL BLOCKERS” (D.E. Shaw Research, LLC, priority 2020, published 2023).
